Legend:
KDR (h) (VEGFR2) = KDR (h) (VEGFR2) (Homo sapiens (Human), UniProt P35968); test: KDR (VEGFR2) (enzymatic assay), TR-FRET; format: biochemical; details: 3 μM ATP; read-out: VEGFR KDR pIC50 (converted)
[1] = tested on: Ba/F3-KDR-transfected cells; test: cells; details: read-out: BAF3-KDR (MIN IL3 pIC50) (converted)
[2] = tested on: Ba/F3-FGFR4-transfected cells; test: cells; details: read-out: BAF3-FGFR4 (pIC50) (converted)
[3] = tested on: Ba/F3-FGFR1-transfected cells; test: cells; details: read-out: BAF3-FGFR1 (MIN IL3 pIC50) (converted)

KDR (h) (VEGFR2), sequence (P35968 20-1356): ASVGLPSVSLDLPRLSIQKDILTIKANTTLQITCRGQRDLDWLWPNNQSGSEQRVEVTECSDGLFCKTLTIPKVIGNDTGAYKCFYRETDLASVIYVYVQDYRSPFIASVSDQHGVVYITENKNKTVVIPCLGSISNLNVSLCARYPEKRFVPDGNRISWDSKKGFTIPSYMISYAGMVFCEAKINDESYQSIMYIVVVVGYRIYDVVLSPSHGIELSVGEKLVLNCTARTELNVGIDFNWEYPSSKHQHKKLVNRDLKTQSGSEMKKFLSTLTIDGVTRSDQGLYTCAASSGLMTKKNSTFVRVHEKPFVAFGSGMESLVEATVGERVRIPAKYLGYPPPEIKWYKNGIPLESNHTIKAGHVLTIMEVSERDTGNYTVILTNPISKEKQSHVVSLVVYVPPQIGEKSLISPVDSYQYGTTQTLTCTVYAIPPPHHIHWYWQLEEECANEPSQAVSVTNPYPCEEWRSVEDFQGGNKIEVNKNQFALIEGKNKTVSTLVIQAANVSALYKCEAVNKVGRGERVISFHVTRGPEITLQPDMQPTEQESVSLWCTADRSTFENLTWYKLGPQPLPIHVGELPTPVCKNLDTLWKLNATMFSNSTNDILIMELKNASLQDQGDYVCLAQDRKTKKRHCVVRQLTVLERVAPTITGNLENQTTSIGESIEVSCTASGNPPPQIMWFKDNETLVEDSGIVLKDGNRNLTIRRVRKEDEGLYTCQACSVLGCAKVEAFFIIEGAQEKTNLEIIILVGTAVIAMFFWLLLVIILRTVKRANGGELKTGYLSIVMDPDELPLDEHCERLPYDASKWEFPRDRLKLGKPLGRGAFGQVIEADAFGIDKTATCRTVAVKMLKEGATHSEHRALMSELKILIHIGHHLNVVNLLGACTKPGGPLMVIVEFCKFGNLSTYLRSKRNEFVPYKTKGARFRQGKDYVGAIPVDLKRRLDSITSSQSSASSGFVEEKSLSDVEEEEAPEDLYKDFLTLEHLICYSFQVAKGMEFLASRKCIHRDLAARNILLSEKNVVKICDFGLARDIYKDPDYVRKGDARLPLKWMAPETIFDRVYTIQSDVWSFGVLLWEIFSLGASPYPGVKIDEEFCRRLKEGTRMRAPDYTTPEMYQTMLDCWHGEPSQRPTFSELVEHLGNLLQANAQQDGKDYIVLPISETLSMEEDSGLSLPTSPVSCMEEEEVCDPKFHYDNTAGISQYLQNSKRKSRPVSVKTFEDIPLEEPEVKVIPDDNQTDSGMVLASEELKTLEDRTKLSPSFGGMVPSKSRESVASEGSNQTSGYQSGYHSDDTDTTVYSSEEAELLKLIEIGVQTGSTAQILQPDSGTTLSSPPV

| Compound | IC50 (KDR (h) (VEGFR2)) [nM] | IC50 [1] [nM] | IC50 [2] [nM] | IC50 [3] [nM] |
| --- | --- | --- | --- | --- |
| COc1cc(OC)cc(N(CC2CC2)c2ncc3ncc(-c4ccccc4)nc3n2)c1 [Compound 7] | > 1000 | > 10000 | – | – |
| COc1cc(OC)c(F)c(N(Cc2ncc[nH]2)c2ncc3ncc(-c4cnn(C)c4)nc3n2)c1 [Compound 13] | 251 | – | – | – |
| COc1cc(OC)c(F)c(N(C[C@H]2CCC(=O)N2)c2ncc3ncc(-c4cnn(C)c4)nc3n2)c1 [Compound 10] | 1000 | – | – | – |
| COc1cc(OC)cc(N(CCO)c2ncc3ncc(-c4cnn(C)c4)nc3n2)c1 [Compound 3] | > 1000 | > 10000 | – | – |
| CNCCN(c1ncc2ncc(-c3cnn(C)c3)nc2n1)c1c(F)c(OC)cc(OC)c1F [Compound 9] | 398 | 2510 | – | – |
| COc1cc(OC)c(F)c(N(Cc2nccn2S(=O)(=O)N(C)C)c2ncc3ncc(-c4cnn(C)c4)nc3n2)c1F [Compound 1] | 100 | – | – | – |
| COc1cc(OC)c(F)c(N(C[C@@H]2CCC(=O)N2)c2ncc3ncc(-c4cnn(C)c4)nc3n2)c1 [Compound 11] | > 1000 | – | – | – |
| COc1cc(OC)c(F)c(N(Cc2ncc[nH]2)c2ncc3ncc(-c4cnn(C)c4)nc3n2)c1F [Compound 2] | 25.1 | – | 25.1 | 6.31 |
| COc1cc(OC)c(F)c(N(C[C@@H]2CCC(=O)N2)c2ncc3ncc(-c4cnn(C)c4)nc3n2)c1F [Compound 8] | 794 | > 10000 | – | – |
| COc1cc(OC)cc(N(CCO)c2ncc3ncc(-c4ccccc4)nc3n2)c1 [Compound 4] | – | > 10000 | – | – |

Source: patent US10272087B2, “Pteridines as FGFR inhibitors” (ASTEX THERAPEUTICS LIMITED, priority 2012, dated 2019)
